{
  "source": "patent US4822823A",
  "about": "“Aqueous preparation and method of preparation thereof” (priority 1986, dated 1989)",
  "key": {"[1]": {"conditions": "for enhancement of solubility of compound (A) (in words): phosphoric acid buffer pH 6.0", "experimental": "The dissolution-assisting agents used as a control are β-cyclodextrin, γ-cyclodextrin, polyvinyl pyrrolidone (hereinbelow abbreviated as PVP), polyoxyethylene monostearate (hereinbelow abbreviated as MYS-40), polyoxyethylene sorbitan monooleate (hereinbelow abbreviated as TO-80), and polyoxyethylene cured castor oil (hereinbelow abbreviated as HCO-40, HCO-60).\nSolubility was determined by dissolving the respective dissolution-assisting agents into 0.2 mole of phosphoric acid buffer solution (Na2 HPO4 NaH2 PO4, pH 6.0), then adding excessive amount of compound (A) and shaking the mixed solution at room temperature (15° C.~20° C.) for 5 days, centrifuging the solution, filtering the supernatant by use of cotton stoppers, and subsequently measuring the concentration of compound (A) contained in the filtrate with a high-speed liquid chromatography."}, "[2]": {"tested_on": "experimental allergic asthma", "conditions": "IgG and IgE, Guinea pigs; cited from earlier work"}, "5-riboxygenase": {"tested_on": "5-riboxygenase", "conditions": "cited from earlier work"}, "[3]": {"conditions": "25° C.; cited from earlier work"}, "[4]": {"tested_on": "production of SRS-A or LTB4", "conditions": "cited from earlier work"}, "[5]": {"tested_on": "experimental allergic asthma", "conditions": "IgE, rats; cited from earlier work"}, "[6]": {"assay": "Stability test of compound (A) with α-cyclodextrin at varying pHs", "type": "physicochemical", "experimental": "Stability test of compound (A) was performed in the following formula at varying pHs: […]\nPurified Water amount totaling 1000 ml\nNote: The data are represented in terms of persistence rate (%)."}},
  "note": "Entries after “also recorded” stand apart in the source; their conditions may differ. Like-named read-outs stand apart in the source and are kept apart here.",
  "data": [
    {"compound": "OC[C@H]1O[C@@H]2O[C@H]3[C@H](O)[C@@H](O)[C@@H](O[C@H]4[C@H](O)[C@@H](O)[C@@H](O[C@H]5[C@H](O)[C@@H](O)[C@@H](O[C@H]6[C@H](O)[C@@H](O)[C@@H](O[C@H]7[C@H](O)[C@@H](O)[C@@H](O[C@H]8[C@H](O)[C@@H](O)[C@@H](O[C@H]9[C@H](O)[C@@H](O)[C@@H](O[C@H]1[C@H](O)[C@H]2O)O[C@@H]9CO)O[C@@H]8CO)O[C@@H]7CO)O[C@@H]6CO)O[C@@H]5CO)O[C@@H]4CO)O[C@@H]3CO", "note": "[γ-cyclodextrin, reference compound]", "values": [
      {"measurement": "enhancement of solubility of compound (A) (in words)", "setting": "[1]", "value": "do not show any intended effect; also recorded: can hardly enhance the solubility"}
    ]},
    {"compound": "CC1=C(C)C(=O)C(CCCCC#CCCCC#CCO)=C(C)C1=O", "note": "[Compound (A)]", "values": [
      {"measurement": "effect on experimental allergic asthma (in words)", "setting": "[2]", "value": "showing experimental allergic asthma"},
      {"measurement": "5-riboxygenase inhibition (in words)", "setting": "5-riboxygenase", "value": "selective inhibitor for 5-riboxygenase"},
      {"measurement": "solubility to water", "setting": "[3]", "value": "less than 10 ng/ml"},
      {"measurement": "inhibition of production of SRS-A or LTB4 (in words)", "setting": "[4]", "value": "inhibit the production of SRS-A or LTB4"},
      {"measurement": "effect on experimental allergic asthma (in words)", "setting": "[5]", "value": "showing experimental allergic asthma"},
      {"measurement": "persistence rate", "setting": "[6]; 60° C.-3 days, pH 4.0, with α-cyclodextrin", "value": 101.2, "unit": "%"},
      {"measurement": "persistence rate", "setting": "[6]; 60° C.-3 days, pH 5.0, with α-cyclodextrin", "value": 102.6, "unit": "%"},
      {"measurement": "persistence rate", "setting": "[6]; 60° C.-3 days, pH 6.0, with α-cyclodextrin", "value": 102.5, "unit": "%"},
      {"measurement": "persistence rate", "setting": "[6]; 60° C.-3 days, pH 7.0, with α-cyclodextrin", "value": 93.3, "unit": "%"},
      {"measurement": "persistence rate", "setting": "[6]; 60° C.-5 days, pH 4.0, with α-cyclodextrin", "value": 102.5, "unit": "%"},
      {"measurement": "persistence rate", "setting": "[6]; 60° C.-5 days, pH 5.0, with α-cyclodextrin", "value": 99.5, "unit": "%"},
      {"measurement": "persistence rate", "setting": "[6]; 60° C.-5 days, pH 6.0, with α-cyclodextrin", "value": 102.8, "unit": "%"},
      {"measurement": "persistence rate", "setting": "[6]; 60° C.-5 days, pH 7.0, with α-cyclodextrin", "value": 87.6, "unit": "%"},
      {"measurement": "persistence rate", "setting": "[6]; Room temp.-5 days, pH 4.0, with α-cyclodextrin", "value": 99.6, "unit": "%"},
      {"measurement": "persistence rate", "setting": "[6]; Room temp.-5 days, pH 5.0, with α-cyclodextrin", "value": 103.0, "unit": "%"},
      {"measurement": "persistence rate", "setting": "[6]; Room temp.-5 days, pH 6.0, with α-cyclodextrin", "value": 99.4, "unit": "%"},
      {"measurement": "persistence rate", "setting": "[6]; Room temp.-5 days, pH 7.0, with α-cyclodextrin", "value": 99.1, "unit": "%"}
    ]},
    {"compound": "dimethyl-β-cyclodextrin", "values": [
      {"measurement": "solubility-enhancing effect relative to phosphoric acid buffer", "setting": "[1]; pH 6", "value": 1000, "unit": "times"}
    ]},
    {"compound": "OC[C@H]1O[C@@H]2O[C@H]3[C@H](O)[C@@H](O)[C@@H](O[C@H]4[C@H](O)[C@@H](O)[C@@H](O[C@H]5[C@H](O)[C@@H](O)[C@@H](O[C@H]6[C@H](O)[C@@H](O)[C@@H](O[C@H]7[C@H](O)[C@@H](O)[C@@H](O[C@H]1[C@H](O)[C@H]2O)O[C@@H]7CO)O[C@@H]6CO)O[C@@H]5CO)O[C@@H]4CO)O[C@@H]3CO", "note": "[α-cyclodextrin]", "values": [
      {"measurement": "solubility-enhancing effect relative to phosphoric acid buffer", "setting": "[1]; compound (A), versus phosphoric acid buffer having pH 6", "value": 1000, "unit": "times"},
      {"measurement": "enhancement of solubility of compound (A) (in words)", "setting": "[1]", "value": "remarkably enhances the solubility of compound (A) without impairing its stability; also recorded: highly advantageous effect; also recorded: prominent enhancement of solubility"}
    ]}
  ]
}
